{"source": "patent US20230323294A1", "about": "“DIFFERENTIATION OF CORTICAL NEURONS FROM HUMAN PLURIPOTENT STEM CELLS” (priority 2016, published 2023)", "assay_type_in_all_cases": "cell-based, human", "key": {"hPSCs [1]": {"tested_on": "hPSCs", "assay": "Total cell / neuron yield in culture (FIG. 1G)", "excerpt": "FIGS. 1A-1I depict illustrations, images and graphs showing the rapid induction of cortical neurons from human pluripotent stem cells using a combinatorial small molecule-based protocol. FIG. 1A is a schematic illustration of the pathway manipulations to generate neural crest versus forebrain fates and neural precursor versus accelerated neuronal fates. Protocols for the derivation of SOX10+ neural crest precursor, PAX6+ CNS precursors and BRN3A/ISL1+sensory neurons have been reported while the current invention is focused on a strategy for the rapid induction of cortical neurons. […] FIG. 1C depicts graphs of the time-course quantitative analyses of CNS (PAX6::H2B-GFP, left), NC (SOX10::GFP, middle) and placode (SIX1::H2B-GFP, right) induction under the various protocols. […] FIG. 1F is a graph showing the quantification of the TUJ1 data from FIGS. 1D and 1E at day 13 of differentiation by intracellular flow. […] FIG. 1G depicts graphs of the P and S single and combinatorial dose response analyses based on quantification of the percentages of NESTIN+ and TUJ1+ cells by intracellular flow cytometry (upper), and an estimate of the total neurons in culture per cm^2 (for every hPSC plated at day 0 under P1S5D and P8S10D conditions, ˜0.7 and 0.2 neurons were obtained respectively at day 13). […]"}, "hPSCs [2]": {"tested_on": "hPSCs", "assay": "Neuronal induction efficiency, intracellular flow cytometry for TUJ1", "conditions": "day 13"}, "hPSC-derived neurons": {"tested_on": "hPSC-derived neurons", "assay": "Survival of cultures maintained in P/S/D in the final differentiation step", "conditions": "3 uM"}, "sodium channel": {"tested_on": "sodium channel"}, "hPSCs [3]": {"tested_on": "hPSCs", "assay": "qRT-PCR gene expression analysis during differentiation", "conditions": "forebrain marker, day 13", "description": "Cells were lysed with Trizol Reagent (Life Technology) and stored in -20° C. Total RNA was extracted using phenol/chloroform and isopropanol precipitation, and dissolved in ddH2O. cDNA was made using the QuantiTech Reverse Transcription Kit (Qiagen). Quantitative RT-PCR was performed using the Mastercycler […]×2 (Eppendorf), and GAPDH was used as the housekeeping gene control for normalization. Delta Delta Ct and fold changes were calculated and results were plotted in Prism (version 6.0, GraphPad)."}, "hPSCs [4]": {"tested_on": "hPSCs", "assay": "Proliferation (pH3) and cell death (cleaved Caspase 3) after P/S/D treatment", "conditions": "for cell proliferation (phospho-Histone 3): as early as 24 hrs after P/S treatment (day 3)", "excerpt": "(a) Percentage of mitotic cells expressing phospho-histone 3 (pH3) among total cells at one day after P/S/D treatment (day 3 of differentiation). (b) Percentage of apoptotic cells expressing cleaved caspase 3 (CC3) among total cells at one day after P/S/D treatment (day 3 of differentiation). The conditions highlighted in the dashed line boxes in a,b are the P1 dosage groups aligned by ascending order of S concentration. For a,b, N=4 randomly selected photo frames from each of the 2 independent batches of cell cultures. Statistical analysis was carried out using the Dunnett's multiple comparison test to compare each dosage with LSB+X at day 3 of differentiation. […] (c) Summary of grouped results in a following the order of increasing concentration of P, or increasing concentration of S (d). (e) Summary of grouped results in b following the order of increasing concentration of P, or increasing concentration of S (f). […] Black dots represent values from quantification of individual photos frames. […]\nIncreased total neuron yields were obtained when lower PD concentrations were combined with SU exposure in an effort to balance neuronal induction efficiency and overall cell toxicity. […] To understand whether reduced yield is due to rapid cell cycle exit or direct toxicity, we measured phospho-Histone 3 (pH3) and cleaved Caspase 3 (CC3) as markers of cell proliferation and death, respectively. […]\nEdU was added to the cultures at 5 μM for a window of 48 hrs each starting at various time points of differentiation (day 8, 13, 18, 23, 28, 33), and the cells were fixed at day 40 with 4% paraformaldehyde for 20 mins. EdU was detected with the Click-iT EdU Imaging Kit (Invitrogen) according to the specifications of the manufacturer. Quantification of EdU positive and cortical layer marker positive neurons in the EdU labeling experiments, and the quantification of marker positive neurons and total cells in the long-term culture was carried out using ImageJ with ITCN plugin for nuclei quantification, combined with manual counting. […] All quantification results were plotted in Prism (version 6.0, GraphPad)."}, "AMPA receptors": {"tested_on": "AMPA receptors", "assay": "Spontaneous excitatory postsynaptic currents (sEPSCs) recording", "conditions": "P1S5D+none conditions at day 40"}, "[5]": {"conditions": "additional treatment on top of PD and SU"}}}
{"compound": "C[C@H](NC(=O)Cc1cc(F)cc(F)c1)C(=O)N[C@H](C(=O)OC(C)(C)C)c1ccccc1", "note": "[DAPT]", "values": [{"measurement": "effect on overall neuron yield", "setting": "hPSCs [1]; [5]", "value": "did not negatively affect overall neuron yield"}, {"measurement": "efficiency of neuronal induction", "setting": "hPSCs [2]; [5]", "value": "further increased"}]}
{"compound": "Cc1c[nH]c(-c2cnc(NCCNc3ccc(C#N)cn3)nc2-c2ccc(Cl)cc2Cl)n1", "note": "[CHIR]", "values": [{"measurement": "effect on survival of cultures maintained in P/S/D", "setting": "hPSC-derived neurons", "value": "strong pro-survival effect"}]}
{"compound": "NC1=N[C@H](O)[C@H]2[C@H]3O[C@]4(O)O[C@@H]([C@@H](O)[C@@]2(N1)[C@@H]4O)[C@]3(O)CO", "note": "[Tetrodotoxin]", "values": [{"measurement": "voltage-dependent sodium channel responses", "setting": "sodium channel", "value": "blocked"}]}
{"compound": "O=C(NOC[C@H](O)CO)c1ccc(F)c(F)c1Nc1ccc(I)cc1F", "note": "[PD0325901, N-(2,3-dihydroxy-propoxy)-3,4-difluoro-2-(2-fluoro-4-iodo-phenylamino)-benzamide]", "values": [{"measurement": "FOXG1 induction", "setting": "hPSCs [3]", "value": "reduced the efficiency of FOXG1 induction"}, {"measurement": "cell proliferation (phospho-Histone 3)", "setting": "hPSCs [4]", "value": "reduced cell proliferation"}, {"measurement": "yield in total cell numbers", "setting": "hPSCs [1]; at high concentrations, suggesting toxicity", "value": "low yield in total cell numbers"}, {"measurement": "TUJ1+%", "setting": "hPSCs [2]; added to LSB+X, at high concentrations", "value": "> 50", "unit": "%"}]}
{"compound": "Cc1c[nH]c(/C=C2\\C(=O)Nc3ccccc32)c1CCC(=O)O", "note": "[SU5402, 2-[(1,2-Dihydro-2-oxo-3H-indol-3-ylidene)methyl]-4-methyl-1H-pyrrole-3-pr-opanoic acid]", "values": [{"measurement": "cell proliferation (phospho-Histone 3)", "setting": "hPSCs [4]", "value": "reduced cell proliferation"}, {"measurement": "cell death (cleaved Caspase 3)", "setting": "hPSCs [4]; one day after P/S/D treatment (day 3)", "value": "observed only at high doses"}]}
{"compound": "NS(=O)(=O)c1cccc2c1c([N+](=O)[O-])cc1nc(O)c(O)nc12", "note": "[NBQX]", "values": [{"measurement": "spontaneous excitatory postsynaptic currents (sEPSCs)", "setting": "AMPA receptors", "value": "inhibited"}]}
